Like-named read-outs stand apart in the source and are kept apart here.
Experiments:
BJELR = test: Sytox primary screen; assay type: cell-based; conditions: Homo sapiens
Description: The Sytox primary screen is a phenotypic assay which monitors alterations in cell survival-proliferation as a result of compound treatment. It was devised as high throughput method to identify compounds which specifically alter the growth potential of cells harboring the causative mutations found in cancer patients while not affecting the growth of normal cells.
The assay relies upon an inexpensive, simple and reliable readout of a membrane impermeable fluorescent dye (Sytox, from Molecular Probes) which binds to nucleic acid. In healthy cells, no signal is detected because the cell's membrane is intact and the dye will not enter. However, if a cell's membrane is compromised as a result of apoptosis or necrosis, a fluorescent signal proportional to the number of similarly affected cells will be detected. By utilizing a two-step readout (final read in the presence of detergent to permit labeling of all cells), the assay can identify compounds which produce cytostasis, cytotoxicity and/or mitogenesis. The first read or “dead cell” read provides an estimate of the toxicity of a given compound by indicating the number of dead or dying cells in the culture at the time of assay. The second read or “total cell” read captures both the cumulative effects of cytoxicity in reducing the size of the cell population as well as any cytostatic or anti-proliferative effects a test compound may exert on the cells in the test population in the absence of toxicity.
For the purpose of screening, the previously described BJ-TERT line was defined as the “normal” reference cell line and BJ-TERT/LT/ST/RAS^V12 cells were the tumorigenic cell line. Cells were seeded overnight in 96 well plates at densities which without treatment would permit 95% confluence in the wells 72 H later. The following day, the cells were exposed to test compounds in a dilution series for a period of 48 hours. Following this incubation period, the Sytox reagent was added to the cultures at the manufacturer's recommended concentration and the dead cell fluorescence read was taken. After completion of this measurement, the detergent Saponin was added to each well of the cultures to permeabilize the membranes allowing the Sytox reagent to enter every cell thereby, facilitating measurement of the total number of cells remaining in the culture.

MCF7 = test: Sytox screen, tumor cell line panel; assay type: cell-based; conditions: Homo sapiens, Breast, activated pathway, read-out: IC 50, MCF7
BT-549 = test: Sytox screen, tumor cell line panel; assay type: cell-based; conditions: Homo sapiens, Breast, activated pathway, read-out: IC 50, BT-549
DLD-1 = test: Sytox screen, tumor cell line panel; assay type: cell-based; conditions: Homo sapiens, Colon, K-ras G13D mutation, wt B-raf, read-out: IC 50, DLD-1
HCT116 = test: Sytox screen, tumor cell line panel; assay type: cell-based; conditions: Homo sapiens, HCT-116; Colon; K-ras G12D; read-out: IC 50, HCT116
HT1080 = test: Sytox screen, tumor cell line panel; assay type: cell-based; conditions: Homo sapiens, HT-1080; fibrosarcoma; n-ras mutation; read-out: IC 50, HT1080
MALME-3M = test: Sytox screen, tumor cell line panel; assay type: cell-based; conditions: Homo sapiens, Melanoma, B-raf V600E mut, ras wt, read-out: IC 50, MALME-3M
SK-MEL-28 = test: Sytox screen, tumor cell line panel; assay type: cell-based; conditions: Homo sapiens, Melanoma, B-raf V600E mut, ras wt, read-out: IC 50, SK-MEL-28
SK-MEL-5 = test: Sytox screen, tumor cell line panel; assay type: cell-based; conditions: Homo sapiens, Melanoma, B-raf V600E mut heterozygote, read-out: IC 50, SK-MEL-5
HOP-62 = test: Sytox screen, tumor cell line panel; assay type: cell-based; conditions: Homo sapiens, Non-Small Cell Lung, K-ras G12V, read-out: IC 50, HOP-62
HOP-92 = test: Sytox screen, tumor cell line panel; assay type: cell-based; conditions: Homo sapiens, Non-Small Cell Lung, Wt ras, read-out: IC 50, HOP-92
OVCAR-3 = test: Sytox screen, tumor cell line panel; assay type: cell-based; conditions: Homo sapiens, Ovarian, K-ras amplification, read-out: IC 50, OVCAR-3
SK-OV-3 = test: Sytox screen, tumor cell line panel; assay type: cell-based; conditions: Homo sapiens, Ovarian, read-out: IC 50, SK-OV-3
OVCAR-5 = test: Sytox screen, tumor cell line panel; assay type: cell-based; conditions: Homo sapiens, Ovarian, K-ras G12V, read-out: IC 50, OVCAR-5
DU-145 = test: Sytox screen, tumor cell line panel; assay type: cell-based; conditions: Homo sapiens, Prostate, Wt ras, read-out: IC 50, DU-145
PC-3 = test: Sytox screen, tumor cell line panel; assay type: cell-based; conditions: Homo sapiens, Prostate, read-out: IC 50, PC-3
PANC-1 = test: Sytox screen, tumor cell line panel; assay type: cell-based; conditions: Homo sapiens, Pancreatic, K-ras V12 mutant, read-out: IC 50, PANC-1
MIA-PaCa-2 = test: Sytox screen, tumor cell line panel; assay type: cell-based; conditions: Homo sapiens, Pancreatic, K-ras mutant (G12C), read-out: IC 50, MIA-PaCa-2
HT-1080 xenografts = test: HT-1080 tumor treatment study; assay type: in vivo, mouse; conditions: nude Balb/c mice; 100 or 50 mg/Kg, QD×5 days, IP
Method: Nude Balb/c (Nu/Nu strain, Charles River Laboratories), female, 5-6 week. old (˜20 g average body weight).
Both compounds were formulated in an identical manner. For the 100 mg/kg dose level, each compound was delivered at a concentration of 10.0 mg/ml, in an injection volume of 0.2 ml. For the 50 mg/kg dose level, each compound was delivered at a concentration of 5.0 mg/ml, in an injection volume of 0.2 ml. For both dose levels, the vehicle contained 0.025% Tween-80, 0.01% benzyl alcohol, 35 mM acetic acid (HOAc), 100 mM potassium phosphate buffer, and 32 mM sucrose, pH=6.5.
Beginning when the mean tumor volume reached ˜200 mm^3, and continuing through day 5, every day, each animal was administered a single IP injection of one of the above treatments, for a total of 5 doses.
Each of 70 mice was implanted with 1×10^7 HT-1080 cells by SC injection of 0.1 cc of inoculum into the right hind flank. A 25 G×⅝″ needle size was used. […]
Starting on Day 1, all animals were weighed, and tumor dimensions (length (L) and width (W)) were measured, every other day. […]
The resulting tumor volume values were averaged for each study group for each time point, and were then plotted against time. Variance was expressed as standard error of the mean (±SEM).

PANC-1 xenografts = test: PANC-1 tumor treatment study; assay type: in vivo; conditions: immunodeficient nude mouse; once a day for five consecutive days
Method: The experimental plan for the PANC-1 study was essentially identical to that of the HT-1080 study outlined above in Example 10 with the following exceptions: approximately 30-40 mg fragment of passaged PANC-1 tumor tissue was implanted subcutaneously in the right flank of an immunodeficient nude mouse. Tumor growth was monitored daily and when the tumors reached approximately 100 mm^3, animals harboring similarly sized tumors were group matched and compound dosing was initiated. Administration of compound 5 occurred once a day for five consecutive days at the doses listed below. In the PANC-1 xenografts, gemcitabine, administered at the maximum tolerated dose for the model, was used as a control. The gemcitabine regimen was 180 mg/kg […] on every third day over a period of 9 days.

CCOc1ccccc1-n1c(CN2CCNCC2)nc2ccccc2c1=O [Compound 5, 3-(2-ethoxyphenyl)-2-(piperazin-1-ylmethyl)quinazolin-4(3H)-one]
IC50 (BJELR; Sytox screen, 48 hours, read-out: IC50 in BJELR): < 100 nM | IC50 (BJELR; fibroblast, primary, ras V12 mutation, read-out: IC 50, BJELR): < 100 nM | IC50 (MCF7): ≥ 1000 nM | IC50 (BT-549): ≥ 100 nM | IC50 (DLD-1): ≥ 100 nM | IC50 (HCT116): ≥ 100 nM | IC50 (HT1080): < 100 nM | IC50 (MALME-3M): ≥ 100 nM | IC50 (SK-MEL-28): ≥ 100 nM | IC50 (SK-MEL-5): ≥ 100 nM | IC50 (HOP-62): ≥ 100 nM | IC50 (HOP-92): ≥ 1000 nM | IC50 (OVCAR-3): ≥ 100 nM | IC50 (SK-OV-3): ≥ 100 nM | IC50 (OVCAR-5): < 100 nM | IC50 (DU-145): ≥ 100 nM | IC50 (PC-3): ≥ 1000 nM | IC50 (PANC-1): < 100 nM | IC50 (MIA-PaCa-2): ≥ 1000 nM | antitumor activity in HT-1080 xenografts (HT-1080 xenografts): robust tumor regression | antitumor activity in PANC-1 xenografts (PANC-1 xenografts): tumor regression
